{
  "source": "ChEMBL document CHEMBL1932965",
  "about": "“Synthesis and SAR of inhibitors of protein kinase CK2: novel tricyclic quinoline analogs” (Bioorg Med Chem Lett, 2012)",
  "molecular_target": "Casein kinase II alpha/beta (Homo sapiens, UniProt P68400)",
  "sequence (P68400 whole entry, looked up)": "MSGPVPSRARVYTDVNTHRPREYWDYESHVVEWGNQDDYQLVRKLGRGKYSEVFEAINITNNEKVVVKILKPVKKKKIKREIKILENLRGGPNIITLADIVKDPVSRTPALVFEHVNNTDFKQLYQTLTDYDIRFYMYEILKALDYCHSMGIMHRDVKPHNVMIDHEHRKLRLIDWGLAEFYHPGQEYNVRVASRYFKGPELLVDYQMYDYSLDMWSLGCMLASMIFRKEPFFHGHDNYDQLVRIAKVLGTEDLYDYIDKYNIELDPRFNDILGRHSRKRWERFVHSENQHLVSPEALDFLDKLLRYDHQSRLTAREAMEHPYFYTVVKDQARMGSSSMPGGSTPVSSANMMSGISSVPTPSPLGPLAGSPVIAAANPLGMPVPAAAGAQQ",
  "assay": "Inhibition of human recombinant CK2alpha/CK2beta using RRRDDDSDDD peptide as substrate by radiometric assay",
  "type": "protein-complex assay",
  "data": [
    {"smiles": "O=C(O)c1ccc2c(c1)nc(-c1ccccc1)c1ccncc12", "values": [
      {"measurement": "IC50", "value": 1.1, "unit": "nM"}
    ]},
    {"smiles": "O=C(O)c1ccc2c(c1)nc(-c1cccnc1)c1ccncc12", "values": [
      {"measurement": "IC50", "value": "> 2500", "unit": "nM"}
    ]},
    {"smiles": "O=C(O)c1ccc2c(c1)nc(-c1ccncc1)c1ccncc12", "values": [
      {"measurement": "IC50", "value": 35, "unit": "nM"}
    ]},
    {"smiles": "O=C(O)c1ccc2c(c1)nc(-c1cccc(Cl)c1)c1ccncc12", "values": [
      {"measurement": "IC50", "value": 2.9, "unit": "nM"}
    ]},
    {"smiles": "O=C(O)c1ccc2c(c1)nc(-c1cccc(F)c1)c1ccncc12", "values": [
      {"measurement": "IC50", "value": 1.3, "unit": "nM"}
    ]},
    {"smiles": "Nc1cccc(-c2nc3cc(C(=O)O)ccc3c3cnccc23)c1", "values": [
      {"measurement": "IC50", "value": 2.7, "unit": "nM"}
    ]},
    {"smiles": "O=C(O)c1ccc2c(c1)nc(-c1cccc(O)c1)c1ccncc12", "values": [
      {"measurement": "IC50", "value": 1, "unit": "nM"}
    ]},
    {"smiles": "COc1cccc(-c2nc3cc(C(=O)O)ccc3c3cnccc23)c1", "values": [
      {"measurement": "IC50", "value": 34, "unit": "nM"}
    ]},
    {"smiles": "O=C(O)c1ccc2c(c1)nc(-c1cccc(OC(F)(F)F)c1)c1ccncc12", "values": [
      {"measurement": "IC50", "value": 5.7, "unit": "nM"}
    ]},
    {"smiles": "CS(=O)(=O)c1cccc(-c2nc3cc(C(=O)O)ccc3c3cnccc23)c1", "values": [
      {"measurement": "IC50", "value": 13, "unit": "nM"}
    ]},
    {"smiles": "NS(=O)(=O)c1cccc(-c2nc3cc(C(=O)O)ccc3c3cnccc23)c1", "values": [
      {"measurement": "IC50", "value": 11, "unit": "nM"}
    ]},
    {"smiles": "NC(=O)c1cccc(-c2nc3cc(C(=O)O)ccc3c3cnccc23)c1", "values": [
      {"measurement": "IC50", "value": 3.5, "unit": "nM"}
    ]},
    {"smiles": "O=C(O)c1ccc2c(c1)nc(-c1ccc(Cl)cc1)c1ccncc12", "values": [
      {"measurement": "IC50", "value": 0.5, "unit": "nM"}
    ]},
    {"smiles": "O=C(O)c1ccc2c(c1)nc(-c1ccc(F)cc1)c1ccncc12", "values": [
      {"measurement": "IC50", "value": 1.2, "unit": "nM"}
    ]},
    {"smiles": "Cc1ccccc1-c1nc2cc(C(=O)O)ccc2c2cnccc12", "values": [
      {"measurement": "IC50", "value": 20, "unit": "nM"}
    ]},
    {"smiles": "O=C(O)c1ccc2c(c1)nc(-c1ccccc1OC(F)(F)F)c1ccncc12", "values": [
      {"measurement": "IC50", "value": 39, "unit": "nM"}
    ]},
    {"smiles": "O=C(O)c1ccc2c(c1)nc(-c1ccccc1F)c1ccncc12", "values": [
      {"measurement": "IC50", "value": 15, "unit": "nM"}
    ]},
    {"smiles": "O=C(O)c1ccc2c(c1)nc(-c1ccc(Cl)cc1)c1ncncc12", "values": [
      {"measurement": "IC50", "value": 12, "unit": "nM"}
    ]},
    {"smiles": "O=C(O)c1ccc2c(c1)nc(-c1cccc(O)c1)c1ncncc12", "values": [
      {"measurement": "IC50", "value": 3.5, "unit": "nM"}
    ]},
    {"smiles": "NC(=O)c1cccc(-c2nc3cc(C(=O)O)ccc3c3cncnc23)c1", "values": [
      {"measurement": "IC50", "value": 17, "unit": "nM"}
    ]},
    {"smiles": "O=C(O)c1ccc2c(c1)nc(-c1ccccc1)c1nc(NC3CC3)ncc12", "values": [
      {"measurement": "IC50", "value": 0.6, "unit": "nM"}
    ]},
    {"smiles": "CCNc1ncc2c(n1)c(-c1ccc(Cl)cc1)nc1cc(C(=O)O)ccc12", "values": [
      {"measurement": "IC50", "value": 0.5, "unit": "nM"}
    ]},
    {"smiles": "O=C(O)c1ccc2c(c1)nc(-c1ccsc1)c1ccncc12", "values": [
      {"measurement": "IC50", "value": 0.5, "unit": "nM"}
    ]},
    {"smiles": "Cc1cscc1-c1nc2cc(C(=O)O)ccc2c2cnccc12", "values": [
      {"measurement": "IC50", "value": 4.2, "unit": "nM"}
    ]},
    {"smiles": "O=C(O)c1ccc2c(c1)nc(-c1ccc(Cl)s1)c1ccncc12", "values": [
      {"measurement": "IC50", "value": 0.4, "unit": "nM"}
    ]},
    {"smiles": "COC(=O)c1ccc2c(c1)nc(-c1ccc(Cl)cc1)c1ccncc12", "values": [
      {"measurement": "IC50", "value": 395, "unit": "nM"}
    ]},
    {"smiles": "NC(=O)c1ccc2c(c1)nc(-c1ccc(Cl)cc1)c1ccncc12", "values": [
      {"measurement": "IC50", "value": 30, "unit": "nM"}
    ]},
    {"smiles": "CONC(=O)c1ccc2c(c1)nc(-c1ccc(Cl)cc1)c1ccncc12", "values": [
      {"measurement": "IC50", "value": 444, "unit": "nM"}
    ]},
    {"smiles": "N#Cc1ccc2c(c1)nc(-c1ccc(Cl)cc1)c1ccncc12", "values": [
      {"measurement": "IC50", "value": "> 2500", "unit": "nM"}
    ]},
    {"smiles": "Clc1ccc(-c2nc3cc(-c4nnn[nH]4)ccc3c3cnccc23)cc1", "values": [
      {"measurement": "IC50", "value": 20, "unit": "nM"}
    ]},
    {"smiles": "O=C(O)c1ccc2nc(-c3ccc(Cl)cc3)c3ccncc3c2c1", "values": [
      {"measurement": "IC50", "value": 164, "unit": "nM"}
    ]},
    {"smiles": "O=C(O)c1cccc2c1nc(-c1ccc(Cl)cc1)c1ccncc12", "values": [
      {"measurement": "IC50", "value": 2030, "unit": "nM"}
    ]},
    {"smiles": "CN(c1cccc(Cl)c1)c1nc2cc(C(=O)O)ccc2c2cnccc12", "values": [
      {"measurement": "IC50", "value": 8.9, "unit": "nM"}
    ]},
    {"smiles": "O=C(O)c1ccc2c(c1)nc(Oc1cccc(Cl)c1)c1ccncc12", "values": [
      {"measurement": "IC50", "value": 3.7, "unit": "nM"}
    ]},
    {"smiles": "O=C(O)c1ccc2c(c1)nc(Sc1cccc(Cl)c1)c1ccncc12", "values": [
      {"measurement": "IC50", "value": 1, "unit": "nM"}
    ]},
    {"smiles": "O=C(O)c1ccc2c(c1)nc(Cc1cccc(Cl)c1)c1ccncc12", "values": [
      {"measurement": "IC50", "value": 2.1, "unit": "nM"}
    ]}
  ]
}
